The record followed here is patent US4956381A, “Treating tissue calcium depletion or degenerative processes in bone or cartilage” (Sandoz Ltd., priority 1987, dated 1990).

For this assay, the system named is human monocytes. The assay can be described thus: LAF-test (thymocyte proliferation), monokine production by human monocytes. Type of assay: cell-based. To be noted: Monocyte, substantially pure Z-isomeric form, 2 separate experiments, 3 parallel determinations, read-out: ED50 (inhibition of monokine production). The protocol:
Mononuclear cells are obtained from the blood of healthy volunteers via centrifugation and cultivated on tissue culture dishes with test compound at varying concentrations [Schnyder et al., J. Immunol., 138, 496-503 (1987)]. The non-adherent lymphocytes are removed after 4 hours by washing several times. Fresh medium, test compound and lipopolysaccharide (LPS) as stimulant are added and the monocytes incubated for further 19 hours. The pooled culture media are diluted 1:10 (v:v) with fresh medium and added to confluent rabbit chondrocytes. MP activity in the chondrocyte culture medium is assayed after a further 2 days. COMPOUNDS OF THE INVENTION, in particular compounds D2 and K1, are active in suppressing monokine release in the above test method at concentrations of the order of from about 30 to about 100 μM. Thus determined ED50 S for the compounds D2 and K1 each in substantially pure Z-isomeric form in a series of 3 or 7 separate experiments each with 3 parallel determinations are, for both compounds, of the order of 60 to 100 μM.
Lymphocyte proliferation is the standard test for monokine activity. […] The cells are incubated for 2 days in 96-well culture plates and the proliferation rate determined using a ^3 H-thymidine pulse (1 μC/well) during the final 6 hours. The incorporated radioactivity is collected on filter paper and counted. […]

As to `COC1=Cc2ccccc2/C(=C/C(=O)O)c2ccsc21` [Compound D2, [10-Methoxy-4H-benzo[4,5]cyclohepta[1,2-b]thiophen-4-ylidene]-acetic acid], the IC50 is about 30 µM.
